Measurements from patent US10750742B2, “Pesticidally active pyrazole derivatives” (SYNGENTA PARTICIPATIONS AG, priority 2015, dated 2020).
Like-named read-outs stand apart in the source and are kept apart here.

Key:
Type in all cases: in vivo
Spodoptera littoralis = Spodoptera littoralis (Egyptian cotton leaf worm), cotton leaf disc spray test; conditions: foliar, 72 h, read-out: control (at least one of mortality, anti-feedant effect, growth inhibition); for percent control (mortality, anti-feedant effect or growth inhibition) at 200 ppm: application rate 200 ppm, L1 larvae, 3 days after infestation
Experimental: Spodoptera littoralis (Egyptian Cotton Leaf Worm)
Cotton leaf discs were placed on agar in 24-well microtiter plates and sprayed with aqueous test solutions prepared from 10′000 ppm DMSO stock solutions. After drying the leaf discs were infested with five L1 larvae. The samples were assessed for mortality, anti-feedant effect, and growth inhibition in comparison to untreated samples 3 days after infestation. Control of Spodoptera littoralis by a test sample is when at least one of mortality, anti-feedant effect, and growth inhibition is higher than the untreated sample.

Plutella xylostella = Plutella xylostella (diamond back moth), artificial diet test; conditions: 120 h, read-out: control (mortality and growth inhibition)
Experimental: Plutella xylostella (Diamond Back Moth):
24-well microtiter plates with artificial diet were treated with aqueous test solutions prepared from 10′000 ppm DMSO stock solutions by pipetting. After drying, the plates were infested with L2 larvae (10 to 15 per well). The samples were assessed for mortality and growth inhibition in comparison to untreated samples 5 days after infestation.

Euschistus heros = Euschistus heros (neotropical brown stink bug), soybean leaf test; conditions: 120 h, read-out: effect in at least one of the two categories (mortality or growth inhibition); for percent effect (mortality or growth inhibition) at 200 ppm: application rate 200 ppm, N2 nymphs, 5 days after infestation
Experimental: Euschistus heros (Neotropical Brown Stink Bug):
Soybean leaves on agar in 24-well microtiter plates were sprayed with aqueous test solutions prepared from 10′000 ppm DMSO stock solutions. After drying the leaves were infested with N2 nymphs. The samples were assessed for mortality and growth inhibition in comparison to untreated samples 5 days after infestation.

Myzus persicae [1] = assay: Myzus persicae (green peach aphid), sucrose solution / Parafilm test; conditions: 120 h, test rate of 12 ppm, sucrose solution, 5 days after infestation, read-out: mortality
Description: (§1) Myzus persicae (Green Peach Aphid):
Test compounds were applied by pipette into 24 well plates and mixed with Sucrose solution. Application rate: 12.5 ppm. The plates were closed with a stretched parafilm. A plastic stencil with 24 holes is placed onto the plate and infested pea seedlings were placed directly on the Parafilm. The infested plate is closed with a gel blotting paper and another plastic stencil and then turned upside down. 5 days after infestation the samples were checked on mortality.

Myzus persicae [2] = assay: Myzus persicae (green peach aphid), sunflower leaf disc spray test; conditions: foliar, 144 h
Experimental: as §1
Sunflower leaf discs were placed on agar in a 24-well microtiter plate and sprayed with test solutions at an application rate of 200 ppm. After drying, the leaf discs were infested with an aphid population of mixed ages. After an incubation period of 6 DAT, samples were checked for mortality. The following compounds gave at least 80% mortality of Myzus persicae: compounds 1,2, 3, 4, 5, 6, 11, 12, 15, 17, 18, 19, 20, 23, 24, 25, 26, 27, 30, 32, 33, 34 35, 41, 43, 44, 47, 50, 55, 58, 59, 60, 61, 62, 63, 64, 65 and 66.

Diabrotica balteata = Diabrotica balteata (corn root worm), maize sprout test; conditions: 96 h, read-out: control (mortality and growth inhibition)
Experimental: Diabrotica balteata, (Corn Root Worm)
Maize sprouts, placed on an agar layer in 24-well microtiter plates were treated with aqueous test solutions prepared from 10′000 ppm DMSO stock solutions by spraying. After drying, the plates were infested with L2 larvae (6 to 10 per well). The samples were assessed for mortality and growth inhibition in comparison to untreated samples 4 days after infestation.

Tetranychus urticae = Tetranychus urticae (two-spotted spider mite), bean leaf disc test; conditions: foliar, 192 h, read-out: control (mortality on mixed population, mobile stages)
Experimental: Tetranychus urticae (Two-Spotted Spider Mite):
Bean leaf discs on agar in 24-well microtiter plates were sprayed with aqueous test solutions prepared from 10′000 ppm DMSO stock solutions. After drying the leaf discs were infested with a mite population of mixed ages. The samples were assessed for mortality on mixed population (mobile stages) 8 days after infestation.

Thrips tabaci = Thrips tabaci (onion thrips), sunflower leaf disc test; conditions: foliar, 144 h, read-out: control (mortality)
Experimental: Thrips tabaci (Onion Thrips):
Sunflower leaf discs were placed on agar in 24-well microtiter plates and sprayed with aqueous test solutions prepared from 10′000 ppm DMSO stock solutions. After drying the leaf discs were infested with a thrips population of mixed ages. The samples were assessed for mortality 6 days after infestation.

[3] = application rate 200 ppm, L2 larvae, 5 days after infestation
[4] = application rate 200 ppm, mixed ages, 6 DAT, read-out: mortality
[5] = application rate 200 ppm, L2 larvae, 4 days after infestation
[6] = application rate 200 ppm, 8 days after infestation
[7] = application rate 200 ppm, mixed ages, 6 days after infestation

Cn1nc(OC(F)F)c(C(F)(F)F)c1-n1cc(-c2ccc(Cl)c(C(=O)NC3(C#N)CC3)c2)cn1 [compound 1]
≥ 80%: percent control (mortality, anti-feedant effect or growth inhibition) at 200 ppm (Spodoptera littoralis) | mortality at 200 ppm (Plutella xylostella; [3]) | percent effect (mortality or growth inhibition) at 200 ppm (Euschistus heros) | mortality at 12 ppm (Myzus persicae [1]) | mortality at 200 ppm (Myzus persicae [2]; [4]) | mortality at 200 ppm (Diabrotica balteata; [5])

COc1nn(C)c(-n2cc(-c3ccc(Cl)c(C(=O)NC4(C#N)CC4)c3)cn2)c1C(F)(F)F [compound 5]
≥ 80%: mortality at 12 ppm (Myzus persicae [1]) | mortality at 200 ppm (Myzus persicae [2]; [4])

Cn1nc(OCC(F)F)c(C(F)(F)F)c1-n1cc(-c2ccc(Cl)c(C(=O)NC3CC3)c2)cn1 [compound 24]
≥ 80%: percent control (mortality, anti-feedant effect or growth inhibition) at 200 ppm (Spodoptera littoralis) | mortality at 200 ppm (Plutella xylostella; [3]) | percent effect (mortality or growth inhibition) at 200 ppm (Euschistus heros) | mortality at 12 ppm (Myzus persicae [1]) | mortality at 200 ppm (Tetranychus urticae; [6]) | mortality at 200 ppm (Myzus persicae [2]; [4]) | mortality at 200 ppm (Diabrotica balteata; [5])

Cn1nc(OCCOC(F)(F)F)c(C(F)(F)F)c1-n1cc(-c2ccc(Cl)c(C(=O)NC3CC3)c2)cn1 [compound 34]
≥ 80%: percent control (mortality, anti-feedant effect or growth inhibition) at 200 ppm (Spodoptera littoralis) | mortality at 200 ppm (Plutella xylostella; [3]) | percent effect (mortality or growth inhibition) at 200 ppm (Euschistus heros) | mortality at 12 ppm (Myzus persicae [1]) | mortality at 200 ppm (Tetranychus urticae; [6]) | mortality at 200 ppm (Myzus persicae [2]; [4]) | mortality at 200 ppm (Diabrotica balteata; [5])

Cn1nc(OC(F)(F)CBr)c(C(F)(F)F)c1-n1cc(-c2ccc(Cl)c(C(=O)NC3(C#N)CC3)c2)cn1 [compound 41]
≥ 80%: percent control (mortality, anti-feedant effect or growth inhibition) at 200 ppm (Spodoptera littoralis) | mortality at 200 ppm (Plutella xylostella; [3]) | mortality at 200 ppm (Thrips tabaci; [7]) | percent effect (mortality or growth inhibition) at 200 ppm (Euschistus heros) | mortality at 200 ppm (Tetranychus urticae; [6]) | mortality at 200 ppm (Myzus persicae [2]; [4]) | mortality at 200 ppm (Diabrotica balteata; [5])

Cn1nc(OC(F)(F)C(F)Br)c(C(F)(F)F)c1-n1cc(-c2ccc(Cl)c(C(=O)NC3CC3)c2)cn1 (stereo not drawn) [compound 43]
≥ 80%: percent control (mortality, anti-feedant effect or growth inhibition) at 200 ppm (Spodoptera littoralis) | mortality at 200 ppm (Plutella xylostella; [3]) | mortality at 200 ppm (Thrips tabaci; [7]) | percent effect (mortality or growth inhibition) at 200 ppm (Euschistus heros) | mortality at 200 ppm (Tetranychus urticae; [6]) | mortality at 200 ppm (Myzus persicae [2]; [4]) | mortality at 200 ppm (Diabrotica balteata; [5])

Cn1nc(O/C(F)=C/C(F)(F)F)c(C(F)(F)F)c1-n1cc(-c2ccc(Cl)c(C(=O)NC3(C#N)CC3)c2)cn1 [compound 48]
≥ 80%: percent control (mortality, anti-feedant effect or growth inhibition) at 200 ppm (Spodoptera littoralis) | mortality at 200 ppm (Plutella xylostella; [3]) | mortality at 200 ppm (Thrips tabaci; [7]) | percent effect (mortality or growth inhibition) at 200 ppm (Euschistus heros) | mortality at 12 ppm (Myzus persicae [1]) | mortality at 200 ppm (Tetranychus urticae; [6]) | mortality at 200 ppm (Diabrotica balteata; [5])

Cn1nc(OC(F)(F)C(F)(C(F)=C(F)C(F)(F)F)C(F)(F)F)c(C(F)(F)F)c1-n1cc(-c2ccc(Cl)c(C(=O)NC3CC3)c2)cn1 (stereo not drawn) [compound 51]
≥ 80%: percent control (mortality, anti-feedant effect or growth inhibition) at 200 ppm (Spodoptera littoralis) | mortality at 200 ppm (Plutella xylostella; [3]) | mortality at 200 ppm (Thrips tabaci; [7]) | percent effect (mortality or growth inhibition) at 200 ppm (Euschistus heros) | mortality at 12 ppm (Myzus persicae [1]) | mortality at 200 ppm (Tetranychus urticae; [6]) | mortality at 200 ppm (Diabrotica balteata; [5])

Cn1nc(OC(F)=C(F)C(F)(F)F)c(C(F)(F)F)c1-n1cc(-c2ccc(Cl)c(C(=O)NC3CC3)c2)cn1 [compound 53]
≥ 80%: percent control (mortality, anti-feedant effect or growth inhibition) at 200 ppm (Spodoptera littoralis) | mortality at 200 ppm (Plutella xylostella; [3]) | mortality at 200 ppm (Thrips tabaci; [7]) | percent effect (mortality or growth inhibition) at 200 ppm (Euschistus heros) | mortality at 12 ppm (Myzus persicae [1]) | mortality at 200 ppm (Tetranychus urticae; [6]) | mortality at 200 ppm (Diabrotica balteata; [5])

Cn1nc(OC(F)(F)C(F)OC(F)(F)F)c(C(F)(F)F)c1-n1cc(-c2cnc(Cl)c(C(=O)NC3(C#N)CC3)c2)cn1 (stereo not drawn) [compound 61]
≥ 80%: percent control (mortality, anti-feedant effect or growth inhibition) at 200 ppm (Spodoptera littoralis) | mortality at 200 ppm (Plutella xylostella; [3]) | mortality at 200 ppm (Thrips tabaci; [7]) | percent effect (mortality or growth inhibition) at 200 ppm (Euschistus heros) | mortality at 200 ppm (Tetranychus urticae; [6]) | mortality at 200 ppm (Myzus persicae [2]; [4]) | mortality at 200 ppm (Diabrotica balteata; [5])

Cn1nc(OC(F)(F)C(F)OC(F)(F)F)c(C(F)(F)F)c1-n1cc(-c2cnc(Cl)c(C(=O)NC3CC3)c2)cn1 (stereo not drawn) [compound 62]
≥ 80%: percent control (mortality, anti-feedant effect or growth inhibition) at 200 ppm (Spodoptera littoralis) | mortality at 200 ppm (Plutella xylostella; [3]) | mortality at 200 ppm (Thrips tabaci; [7]) | percent effect (mortality or growth inhibition) at 200 ppm (Euschistus heros) | mortality at 200 ppm (Tetranychus urticae; [6]) | mortality at 200 ppm (Myzus persicae [2]; [4]) | mortality at 200 ppm (Diabrotica balteata; [5])

Cn1nc(SC(F)(F)F)c(Br)c1-n1cc(-c2ccc(Cl)c(C(=O)NC3CC3)c2)cn1 [compound 63]
≥ 80%: percent control (mortality, anti-feedant effect or growth inhibition) at 200 ppm (Spodoptera littoralis) | mortality at 200 ppm (Plutella xylostella; [3]) | mortality at 200 ppm (Thrips tabaci; [7]) | percent effect (mortality or growth inhibition) at 200 ppm (Euschistus heros) | mortality at 200 ppm (Tetranychus urticae; [6]) | mortality at 200 ppm (Myzus persicae [2]; [4]) | mortality at 200 ppm (Diabrotica balteata; [5])

Cn1nc(SC(F)(F)C(F)(F)C(F)(F)F)c(Br)c1-n1cc(-c2ccc(Cl)c(C(=O)NC3CC3)c2)cn1 [compound 64]
≥ 80%: mortality at 200 ppm (Spodoptera littoralis) | mortality at 200 ppm (Plutella xylostella) | mortality at 200 ppm (Thrips tabaci) | percent control (mortality or growth inhibition) at 200 ppm (Euschistus heros) | mortality at 200 ppm (Tetranychus urticae) | mortality at 200 ppm (Myzus persicae [2]) | mortality at 200 ppm (Diabrotica balteata)

Cn1nc(OC(F)(F)C(F)C(F)(F)F)c(C(F)(F)F)c1-n1cc(-c2cnc(Cl)c(C(=O)NC3(C#N)CC3)c2)cn1 (stereo not drawn) [compound 65]
≥ 80%: mortality at 200 ppm (Plutella xylostella; [3]) | mortality at 200 ppm (Thrips tabaci; [7]) | percent effect (mortality or growth inhibition) at 200 ppm (Euschistus heros) | mortality at 200 ppm (Tetranychus urticae; [6]) | mortality at 200 ppm (Myzus persicae [2]; [4]) | mortality at 200 ppm (Diabrotica balteata; [5])

Cn1nc(OC(F)(F)C(F)C(F)(F)F)c(C(F)(F)F)c1-n1cc(-c2cnc(Cl)c(C(=O)NC3CC3)c2)cn1 (stereo not drawn) [compound 66]
≥ 80%: mortality at 200 ppm (Plutella xylostella; [3]) | mortality at 200 ppm (Thrips tabaci; [7]) | percent effect (mortality or growth inhibition) at 200 ppm (Euschistus heros) | mortality at 200 ppm (Tetranychus urticae; [6]) | mortality at 200 ppm (Myzus persicae [2]; [4])
